According to patent US9944607B2, “Thiohydantoin derivatives and uses thereof” (Whitehead Institute for Biomedical Research, priority 2012, dated 2018):

What was measured:
[1] = tested on: mitochondrial membrane potential of S. cerevisiae; assay: Secondary mitochondrial disruption assay (JC-1 dye, flow cytometry); format: cell-based, Saccharomyces cerevisiae; settings: living S. cerevisiae treated with 1 μM compound; AIDs 624062, 624068
Experimental: Procedures • Use a Thermo Combi nL to dispense 20 μL/well of assay media into all wells. • Add 2 μL of Amphotericin B to control wells. • Pin 100 nL of test compound from compound plates into assay plates using a CyBi-Well pin tool. • Dispense 20 μL/well of culture into the assay media in all wells. • Incubate the plates in a humidified (90% humidity) Liconic incubator at 37° C. without agitation for 48 hours. • Shake plates briefly. • Read OD600 of wells on a standard plate reader as measure of relative fungal growth. Envision (Perkin Elmer) plate reader settings: Ex Photometric 600, Top read. 4.5. Secondary Mitochondrial Disruption Assay (AID No. 624062 and 624068)
The fluorescent dye JC-1 was used to quantify the ability of compounds to disrupt the mitochondrial membrane potential of fungi. Mitochondrial membrane depolarization is indicated by a decrease in the yellow/green fluorescence intensity ratio. This is a non-gating, binning assay that establishes whether inhibition of fungal growth in glycerol results from direct compromise of mitochondrial function or alternative components of fungal respiratory metabolism. Probes that disrupt mitochondrial function as well as those that perturb other metabolic components are desirable. […]
Additionally, direct impairment of mitochondrial function in C. glabrata and S. cerevisiae was assessed using a fluorescence assay.

[2] = PBS stability; format: physicochemical; settings: PBS pH 7.4, 23° C.
Experimental: Stability was determined in the presence of PBS pH 7.4 with 0.1% DMSO. […] One plate was removed at each time point (0, 2, 4, 8, 24, and 48 hours). […] Additionally, to the remaining material at each time point, acetonitrile was added to force dissolution of compound (to test for recovery of compound). An aliquot of this was also analyzed by UPLC-MS.

[3] = tested on: Candida albicans strain SC5314; assay: Colony counts over time, C. albicans SC5314 in RPMI (FIG. 14); format: cell-based; settings: colonies counted after 24 and 48 hours
Experimental: Compound I-B-4 (ML316) was studied in fluconazole-sensitive Candida albicans strain SC5314. The SC5314 strain was inoculated into RPMI media at 10^3 CFU/mL in the presence or absence of 5 μM I-B-4 (ML316) and 32 ug/mL fluconazole. Colonies were plated from the cultures after 24 and 48 hours and counted.

[4] = target: bovine bc1 complex (Bos taurus, UniProt P00157); settings: read-out: IC50, isolated bovine bc1 complex; studies by Trumpower et al.; cited from earlier work

Row | Structure (SMILES) | Depolarization of the mitochondrial membrane (JC-1 dye) [1] | Stability in PBS solution, % remaining after a 48-hour incubation [2] [%] | Cytotoxicity to fluconazole-sensitive C. albicans SC5314, compound alone ([3]; 5 μM I-B-4) | Cytotoxicity to fluconazole-sensitive C. albicans SC5314, combination with fluconazole (FCZ) ([3]; 5 μM I-B-4 and 32 ug/mL fluconazole) | IC50 [4] [nM]
1 | CCOC(=O)N1C(=O)C2(CCCCC2)N(c2ccc(F)cc2)C1=S [CID 56604860, Ethyl 1-(4-fluorophenyl)-4-oxo-2-thioxo-1,3-diazaspiro[4.5]decane-3-carboxylate] | depolarization of the mitochondrial membrane does not occur | > 60 | cytotoxic | cytotoxic | 
2 | C/C=C/C1[C@H]2C[C@@H](C)CC[C@@H]2C(C)=C[C@H]1C(=O)c1c(O)c(-c2ccc(O)cc2)c[nH]c1=O (some centres unmarked) [ilicicolin H, reference compound] |  |  |  |  | 200
